Laboratory results taken from patent US10479780B2, “Aminopyrazole derivatives” (Chugai Seiyaku Kabushiki Kaisha, priority 2015, dated 2019).
Read-outs that look alike come from different tables or passages of the source.

Tests used:
Assay type in all cases: biochemical
human Yes1 enzyme = biological target: T1, human Yes1 enzyme (Homo sapiens, UniProt P07947); experiment: Yes1 enzyme inhibitory activity (time-resolved fluorometry, biotinylated peptide phosphorylation); conditions: read-out: YES_IC50
T1 construct: made in house
In short: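 Inhibition was expressed against a compound-free control to give IC50, using TR-FRET read-out (Eu-cryptate anti-pTyr antibody, streptavidin-XL665).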

human Src enzyme = biological target: T2, human Src enzyme (Homo sapiens, UniProt P12931); experiment: Src enzyme inhibitory activity (time-resolved fluorometry, biotinylated peptide phosphorylation); conditions: read-out: SRC_IC50
T2 construct: purchased Carna Biosciences, Inc. 08-173
In short: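 Compounds were tested for blocking tyrosine phosphorylation of a biotinylated peptide substrate by recombinant human Src. Phosphorylated product was quantified by time-resolved fluorometry using europium cryptate and XL665 conjugates, and IC50 was calculated against the compound-free control.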

human Lck enzyme = biological target: T3, human Lck enzyme (Homo sapiens, UniProt P06239); experiment: Lck enzyme inhibitory activity (time-resolved fluorometry, biotinylated peptide phosphorylation); conditions: read-out: LCK_IC50
T3 construct: purchased Carna Biosciences, Inc. 08-170
In short: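 Readout pairs a europium cryptate-labelled anti-phosphotyrosine antibody with XL665-streptavidin, measured by time-resolved fluorescence. IC50 derived from percent inhibition against untreated controls.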

[1] = biotinylated peptide phosphorylation

T2 sequence (P12931 whole entry): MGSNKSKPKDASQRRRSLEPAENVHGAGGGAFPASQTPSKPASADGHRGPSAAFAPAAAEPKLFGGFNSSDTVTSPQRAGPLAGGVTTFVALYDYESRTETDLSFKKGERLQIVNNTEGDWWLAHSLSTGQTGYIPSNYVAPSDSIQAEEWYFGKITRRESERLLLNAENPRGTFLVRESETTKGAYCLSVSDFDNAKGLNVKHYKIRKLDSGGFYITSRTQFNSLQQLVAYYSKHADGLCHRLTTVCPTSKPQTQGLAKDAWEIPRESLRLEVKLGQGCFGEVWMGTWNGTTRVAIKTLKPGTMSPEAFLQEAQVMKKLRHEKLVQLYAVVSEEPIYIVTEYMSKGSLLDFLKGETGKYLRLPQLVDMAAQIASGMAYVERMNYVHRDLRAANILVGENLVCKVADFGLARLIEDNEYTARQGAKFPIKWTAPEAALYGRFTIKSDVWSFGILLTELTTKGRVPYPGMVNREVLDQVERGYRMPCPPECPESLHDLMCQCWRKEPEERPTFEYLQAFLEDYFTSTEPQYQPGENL
T1 sequence (P07947 whole entry): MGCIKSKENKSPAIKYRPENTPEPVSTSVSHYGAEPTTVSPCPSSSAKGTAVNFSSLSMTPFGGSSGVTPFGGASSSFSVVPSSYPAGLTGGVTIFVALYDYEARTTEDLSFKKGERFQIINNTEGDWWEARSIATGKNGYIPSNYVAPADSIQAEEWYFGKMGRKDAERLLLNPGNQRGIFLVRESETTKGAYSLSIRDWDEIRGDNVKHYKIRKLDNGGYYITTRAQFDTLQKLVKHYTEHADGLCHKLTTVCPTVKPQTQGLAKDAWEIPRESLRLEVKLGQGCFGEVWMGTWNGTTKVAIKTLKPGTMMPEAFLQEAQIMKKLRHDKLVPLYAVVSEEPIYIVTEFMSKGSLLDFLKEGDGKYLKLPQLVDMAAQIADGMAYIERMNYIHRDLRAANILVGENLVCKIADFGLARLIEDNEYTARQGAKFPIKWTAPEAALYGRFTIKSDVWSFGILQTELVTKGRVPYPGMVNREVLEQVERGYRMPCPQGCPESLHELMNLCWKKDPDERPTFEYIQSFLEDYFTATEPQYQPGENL
T3 sequence (P06239 whole entry): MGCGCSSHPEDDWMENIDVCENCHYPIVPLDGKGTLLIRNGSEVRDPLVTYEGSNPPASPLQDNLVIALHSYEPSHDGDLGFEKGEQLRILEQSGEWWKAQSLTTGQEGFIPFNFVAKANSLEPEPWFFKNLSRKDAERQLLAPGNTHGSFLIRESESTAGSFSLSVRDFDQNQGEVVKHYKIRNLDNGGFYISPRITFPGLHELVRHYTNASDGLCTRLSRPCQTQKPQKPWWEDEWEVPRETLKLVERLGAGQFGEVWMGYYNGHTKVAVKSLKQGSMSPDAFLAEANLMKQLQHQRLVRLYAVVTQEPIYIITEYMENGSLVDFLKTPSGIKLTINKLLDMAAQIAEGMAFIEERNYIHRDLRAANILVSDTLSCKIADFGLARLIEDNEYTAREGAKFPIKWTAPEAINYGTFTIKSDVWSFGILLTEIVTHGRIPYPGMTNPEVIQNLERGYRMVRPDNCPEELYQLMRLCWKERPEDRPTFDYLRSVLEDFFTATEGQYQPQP

Row | Structure (SMILES) | IC50 (human Yes1 enzyme) [nM] | IC50 (human Src enzyme) [nM] | IC50 (human Lck enzyme) [nM] | IC50 (human Yes1 enzyme; [1]) [nM] | IC50 (human Src enzyme; [1]) [nM] | IC50 (human Lck enzyme; [1]) [nM]
1 | Cc1cc2cc(C(=O)c3cnn(-c4cnc(Oc5c(F)cccc5F)cc4C)c3N)[nH]c2cc1NS(=O)(=O)C1CCOC1 (stereo not drawn) [Example 5-1-281, N-[2-[5-amino-1-[6-(2,6-difluorophenoxy)-4-methylpyridin-3-yl]pyrazole-4-carbonyl]-5-methyl-1H-indol-6-yl]oxolane-3-sulfonamide] | 1.9 | 140 | 27 |  |  | 
2 | Cc1cc(Oc2ccccc2F)ccc1-n1ncc(C(=O)c2cc3cc(F)c(NS(=O)(=O)NC(C)(C)CO)cc3[nH]2)c1N [Example 4-6-003, [5-amino-1-[4-(2-fluorophenoxy)-2-methylphenyl]pyrazol-4-yl]-[5-fluoro-6-[(1-hydroxy-2-methylpropan-2-yl)sulfamoylamino]-1H-indol-2-yl]methanone] |  |  |  | 2.3 | 88 | 22
3 | Cc1cc2cc(C(=O)c3cnn(-c4cnc(Oc5c(F)cccc5F)cc4C)c3N)[nH]c2cc1N1C(=O)N[C@@H](Cc2ccccc2)C1=O [Example 5-1-452, (5S)-3-[2-[5-amino-1-[6-(2,6-difluorophenoxy)-4-methylpyridin-3-yl]pyrazole-4-carbonyl]-5-methyl-1H-indol-6-yl]-5-benzylimidazolidine-2,4-dione] |  |  |  | 5.4 | 150 | 28
4 | Cc1cc2cc(C(=O)c3cnn(-c4cnc(Oc5ccc(F)cc5)cc4C)c3N)[nH]c2cc1NS(=O)(=O)CCCF [Example 4-2-076, N-[2-[5-amino-1-[6-(4-fluorophenoxy)-4-methylpyridin-3-yl]pyrazole-4-carbonyl]-5-methyl-1H-indol-6-yl]-3-fluoropropane-1-sulfonamide] |  |  |  | 18 | 130 | 62
5 | Cc1cc(Oc2c(F)cccc2F)ncc1-n1ncc(C(=O)c2cc3cc(OC(F)F)c(C4CCN(C(=O)CN)CC4)cc3[nH]2)c1N [Example 4-18-003, 2-amino-1-[4-[2-[5-amino-1-[6-(2,6-difluorophenoxy)-4-methylpyridin-3-yl]pyrazole-4-carbonyl]-5-(difluoromethoxy)-1H-indol-6-yl]piperidin-1-yl]ethanone] |  |  |  | 4.8 | 23 | 11
6 | COc1cc2cc(C(=O)c3cnn(-c4cnc(Oc5cccc(Cl)c5)cc4C)c3N)[nH]c2cc1NS(C)(=O)=O [Example 4-1-011, N-[2-[5-amino-1-[6-(3-chlorophenoxy)-4-methylpyridin-3-yl]pyrazole-4-carbonyl]-5-methoxy-1H-indol-6-yl]methanesulfonamide] |  |  |  | 5.5 | 170 | 41
7 | Cc1cnc(F)c(S(=O)(=O)Nc2cc3[nH]c(C(=O)c4cnn(-c5cnc(Oc6c(F)cccc6F)cc5C)c4N)cc3cc2OCC(F)F)c1 [Example 5-1-571, N-[2-[5-amino-1-[6-(2,6-difluorophenoxy)-4-methylpyridin-3-yl]pyrazole-4-carbonyl]-5-(2,2-difluoroethoxy)-1H-indol-6-yl]-2-fluoro-5-methylpyridine-3-sulfonamide] |  |  |  | 2.2 | 540 | 30
8 | Cc1cc(Oc2ccccc2Cl)cc(F)c1-n1ncc(C(=O)c2cc3cc(Cl)c(NS(C)(=O)=O)cc3[nH]2)c1N [Example 4-2-082, N-[2-[5-amino-1-[4-(2-chlorophenoxy)-2-fluoro-6-methylphenyl]pyrazole-4-carbonyl]-5-chloro-1H-indol-6-yl]methanesulfonamide] |  |  |  | 22 | 310 | 160
9 | Cc1ccccc1Oc1cc(C)c(-n2ncc(C(=O)c3cc4cc(Cl)c(NS(C)(=O)=O)cc4[nH]3)c2N)cn1 [Example 4-2-090, N-[2-[5-amino-1-[4-methyl-6-(2-methylphenoxy)pyridin-3-yl]pyrazole-4-carbonyl]-5-chloro-1H-indol-6-yl]methanesulfonamide] |  |  |  | 1.5 | 110 | 17
10 | Cc1cc(Oc2cccc(F)c2F)cc(F)c1-n1ncc(C(=O)c2cc3cc(Cl)c(NS(C)(=O)=O)cc3[nH]2)c1N [Example 4-2-080, N-[2-[5-amino-1-[4-(2,3-difluorophenoxy)-2-fluoro-6-methylphenyl]pyrazole-4-carbonyl]-5-chloro-1H-indol-6-yl]methanesulfonamide] |  |  |  | 12 | 170 | 68
11 | Cc1cc(Oc2ccccc2F)ncc1-n1ncc(C(=O)c2cc3cc(OCC(F)F)c(NC4COC4)cc3[nH]2)c1N [Example 4-23-020, [5-amino-1-[6-(2-fluorophenoxy)-4-methylpyridin-3-yl]pyrazol-4-yl]-[5-(2,2-difluoroethoxy)-6-(oxetan-3-ylamino)-1H-indol-2-yl]methanone] |  |  |  | 1.4 | 30 | 3.8
12 | Cc1cc(Oc2cccc(F)c2)ccc1-n1ncc(C(=O)c2cc3cc(C4CCN(C(C)C)CC4)c(F)cc3[nH]2)c1N [Example 5-1-005, [5-amino-1-[4-(3-fluorophenoxy)-2-methylphenyl]pyrazol-4-yl]-[6-fluoro-5-(1-propan-2-ylpiperidin-4-yl)-1H-indol-2-yl] methanone] | 0.71 | 37 | 4.2 |  |  | 
13 | Cc1cc(Oc2ccccc2F)cc(C)c1-n1ncc(C(=O)c2cc3cc(F)c(NS(=O)(=O)CCCF)cc3[nH]2)c1N [Example 5-1-040, N-[2-[5-amino-1-[4-(2-fluorophenoxy)-2,6-dimethylphenyl]pyrazole-4-carbonyl]-5-fluoro-1H-indol-6-yl]-3-fluoropropane-1-sulfonamide] | 13 | 280 | 88 |  |  | 
14 | Cc1cc(Oc2ccccc2F)cc(F)c1-n1ncc(C(=O)c2cc3cc(OCC(F)F)c(N4CCOC4=O)cc3[nH]2)c1N [Example 4-25-017, 3-[2-[5-amino-1-[2-fluoro-4-(2-fluorophenoxy)-6-methylphenyl]pyrazole-4-carbonyl]-5-(2,2-difluoroethoxy)-1H-indol-6-yl]-1,3-oxazolidin-2-one] |  |  |  | 1.3 | 6.4 | 2.3
15 | Cc1cc2cc(C(=O)c3cnn(-c4ccc(Oc5ccccc5F)cc4C)c3N)[nH]c2cc1N1C(=O)NC2(CCNCC2)C1=O [Example 5-1-364, 3-(2-(5-amino-1-(4-(2-fluorophenoxy)-2-methylphenyl)-1H-pyrazole-4-carbonyl)-5-methyl-1H-indol-6-yl)-1,3,8-triazaspiro[4.5]decane-2,4-dione] | 1.3 | 18 | 5.4 |  |  | 
16 | Cc1cc2cc(C(=O)c3cnn(-c4cnc(Oc5ccccc5F)cc4C)c3N)[nH]c2cc1NS(=O)(=O)CC(=O)N1CCCC1 [Example 5-1-121, N-[2-[5-amino-1-[6-(2-fluorophenoxy)-4-methylpyridin-3-yl]pyrazole-4-carbonyl]-5-methyl-1H-indol-6-yl]-2-oxo-2-pyrrolidin-1-ylethanesulfonamide] | 1.7 | 90 | 14 |  |  | 
17 | Cc1cc2cc(C(=O)c3cnn(-c4cnc(Oc5ccccc5Cl)cc4C)c3N)[nH]c2cc1NS(=O)(=O)N1CCOCC1 [Example 4-2-110, N-[2-[5-amino-1-[6-(2-chlorophenoxy)-4-methylpyridin-3-yl]pyrazole-4-carbonyl]-5-methyl-1H-indol-6-yl]morpholine-4-sulfonamide] |  |  |  | 8.7 | 250 | 110
